Measured values taken from patent US20240050428A1 (Cullgen (Shanghai), Inc., priority 2020, published 2024).
Like-named read-outs stand apart in the source and are kept apart here.

Key:
MV4;11 cells = assay: Cell viability assay (CellTiter-Glo) in MV4;11 cells, alone or with gilteritinib; type: cell-based; settings: Homo sapiens, MV4-11, 72 h, MV4;11 cells, three days, CellTiter-Glo, read-out: MV4
MOLM-13 cells = assay: Cell viability assay (CellTiter-Glo) in MOLM-13 cells, alone or with gilteritinib; type: cell-based; settings: Homo sapiens, MOLM-13, 72 h, MOLM-13 cells, three days, CellTiter-Glo
[1] = compound alone (without gilteritinib), 11 IC50
[2] = with gilteritinib 10 nM, 11 IC50 gilteritinib
[3] = compound alone (without gilteritinib), read-out: MOLM-13 IC50
[4] = with gilteritinib 20 nM, read-out: MOLM-13 IC50 gilteritinib

SMILES	IC50 (MV4;11 cells; [1]) [µM]	IC50 (MV4;11 cells; [2]) [µM]	IC50 (MOLM-13 cells; [3]) [µM]	IC50 (MOLM-13 cells; [4]) [µM]	IC50 (MV4;11 cells; compound with gilteritinib 10 nM, 11 IC50 gilteritinib) [µM]	IC50 (MOLM-13 cells; compound with gilteritinib 20 nM, read-out: MOLM-13 IC50 gilteritinib) [µM]
O=C1CCC(N2C(=O)c3ccc(NCCCCCCn4cc(-c5cnc6cccc(C7CCNCC7)c6n5)cn4)cc3C2=O)C(=O)N1 (stereo not shown) [GS-393, 2-(2,6-Dioxopiperidin-3-yl)-5-((6-(4-(8-(piperidin-4-yl)quinoxalin-2-yl)-1H-pyrazol-1-yl)hexyl)amino)isoindoline-1,3-dione]	> 1	> 1	> 1	> 1	–	–
O=C1CCC(N2C(=O)c3ccc(NCC4CC(n5cc(-c6cnc7cccc(F)c7n6)cn5)C4)cc3C2=O)C(=O)N1 (stereo not shown) [GS-394, 2-(2,6-Dioxopiperidin-3-yl)-5-(((3-(4-(8-fluoroquinoxalin-2-yl)-1H-pyrazol-1-yl)cyclobutyl)methyl)amino)isoindoline-1,3-dione]	0.1 to 1	0.01 to 0.1	> 1	0.01 to 0.1	–	–
CN1C[C@H]2C[C@@H]1CN2c1ccc2ncc(-c3cnn(C4CC(CCCNc5ccc6c(c5)C(=O)N(C5CCC(=O)NC5=O)C6=O)C4)c3)nc2c1 (stereo partly drawn) [GS-395, 2-(2,6-Dioxopiperidin-3-yl)-5-((3-(3-(4-(7-((1R,4R)-5-methyl-2,5-diazabicyclo[2.2.1]heptan-2-yl)quinoxalin-2-yl)-1H-pyrazol-1-yl)cyclobutyl)propyl)amino)isoindoline-1,3-dione]	> 1	0.01 to 0.1	> 1	0.01 to 0.1	–	–
O=C1CCC(N2C(=O)c3ccc(NCCC[C@H]4C[C@H](n5cc(-c6cnc7cc(N8CCOCC8)ccc7n6)cn5)C4)cc3C2=O)C(=O)N1 (stereo partly drawn) [GS-396, 2-(2,6-Dioxopiperidin-3-yl)-5-((3-(trans-3-(4-(6-morpholinoquinoxalin-2-yl)-1H-pyrazol-1-yl)cyclobutyl)propyl)amino)isoindoline-1,3-dione]	0.01 to 0.1	< 0.01	0.01 to 0.1	< 0.01	–	–
CN1CCN(c2ccc3nc(-c4cnn([C@H]5C[C@H](CCCNc6ccc7c(c6)C(=O)N(C6CCC(=O)NC6=O)C7=O)C5)c4)cnc3c2)CC1 (stereo partly drawn) [GS-397, 2-(2,6-Dioxopiperidin-3-yl)-5-((3-(trans-3-(4-(6-(4-methylpiperazin-1-yl)quinoxalin-2-yl)-1H-pyrazol-1-yl)cyclobutyl)propyl)amino)isoindoline-1,3-dione]	0.01 to 0.1	< 0.01	0.01 to 0.1	< 0.01	–	–
CN1CCN(c2cccc3ncc(-c4cnn(C5CC(CNc6ccc7c(c6)C(=O)N(C6CCC(=O)NC6=O)C7=O)C5)c4)nc23)CC1 (stereo not shown) [GS-398, 2-(2,6-Dioxopiperidin-3-yl)-5-(((3-(4-(8-(4-methylpiperazin-1-yl)quinoxalin-2-yl)-1H-pyrazol-1-yl)cyclobutyl)methyl)amino)isoindoline-1,3-dione]	> 1	> 1	> 1	> 1	–	–
Cc1nn([C@H]2C[C@H](CCCNc3ccc4c(c3)C(=O)N(C3CCC(=O)NC3=O)C4=O)C2)cc1-c1cnc2ccc(N3CCOCC3)cc2n1 (stereo partly shown) [GS-399]	< 0.01	< 0.01	< 0.01	< 0.01	–	–
O=C1CCC(N2C(=O)c3ccc(NCCC[C@H]4C[C@H](n5cc(-c6cnc7ccccc7n6)c(C(F)(F)F)n5)C4)cc3C2=O)C(=O)N1 (stereo partly drawn) [GS-400, 2-(2,6-Dioxopiperidin-3-yl)-5-((3-(trans-3-(4-(quinoxalin-2-yl)-3-(trifluoromethyl)-1H-pyrazol-1-yl)cyclobutyl)propyl)amino)isoindoline-1,3-dione]	0.01 to 0.1	0.01 to 0.1	0.1 to 1	0.01 to 0.1	–	–
O=C1CCC(N2C(=O)c3ccc(NCCC[C@H]4C[C@H](n5cc(-c6cnc7cc(N8CCNCC8)ccc7n6)cn5)C4)cc3C2=O)C(=O)N1 (stereo partly drawn) [GS-401, 2-(2,6-Dioxopiperidin-3-yl)-5-((3-(trans-3-(4-(6-(piperazin-1-yl)quinoxalin-2-yl)-1H-pyrazol-1-yl)cyclobutyl)propyl)amino)isoindoline-1,3-dione]	0.01 to 0.1	< 0.01	0.01 to 0.1	< 0.01	–	–
O=C1CCC(N2C(=O)c3ccc(NCCC[C@H]4C[C@@H](n5cc(-c6cnc7cc(N8CCOCC8)ccc7n6)cn5)C4)cc3C2=O)C(=O)N1 (stereo partly drawn) [GS-402, 2-(2,6-Dioxopiperidin-3-yl)-5-((3-(cis-3-(4-(6-morpholinoquinoxalin-2-yl)-1H-pyrazol-1-yl)cyclobutyl)propyl)amino)isoindoline-1,3-dione]	0.1 to 1	0.01 to 0.1	> 1	0.01 to 0.1	–	–
O=C1CCC(N2C(=O)c3ccc(NCCC[C@H]4C[C@H](n5cc(-c6cnc7c(N8CCOCC8)cccc7n6)cn5)C4)cc3C2=O)C(=O)N1 (stereo partly drawn) [GS-403, 2-(2,6-Dioxopiperidin-3-yl)-5-((3-(trans-3-(4-(5-morpholinoquinoxalin-2-yl)-1H-pyrazol-1-yl)cyclobutyl)propyl)amino)isoindoline-1,3-dione]	0.1 to 1	0.01 to 0.1	0.1 to 1	0.01 to 0.1	–	–
CN1CCN(c2cccc3nc(-c4cnn([C@H]5C[C@H](CCCNc6ccc7c(c6)C(=O)N(C6CCC(=O)NC6=O)C7=O)C5)c4)cnc23)CC1 (stereo partly drawn) [GS-404, 2-(2,6-Dioxopiperidin-3-yl)-5-((3-(trans-3-(4-(5-(4-methylpiperazin-1-yl)quinoxalin-2-yl)-1H-pyrazol-1-yl)cyclobutyl)propyl)amino)isoindoline-1,3-dione]	0.01 to 0.1	< 0.01	0.1 to 1	< 0.01	–	–
O=C1CCC(N2C(=O)c3ccc(NCCC[C@H]4C[C@H](n5cc(-c6cnc7c(N8CCNCC8)cccc7n6)cn5)C4)cc3C2=O)C(=O)N1 (stereo partly drawn) [GS-405, 2-(2,6-Dioxopiperidin-3-yl)-5-((3-(trans-3-(4-(5-(piperazin-1-yl)quinoxalin-2-yl)-1H-pyrazol-1-yl)cyclobutyl)propyl)amino)isoindoline-1,3-dione]	0.01 to 0.1	0.01 to 0.1	0.1 to 1	< 0.01	–	–
Cc1nn([C@H]2C[C@H](CCCNc3ccc4c(c3)C(=O)N(C3CCC(=O)NC3=O)C4=O)C2)cc1-c1cnc2ccc(N3C[C@H]4C[C@@H]3CN4C)cc2n1 (stereo partly drawn) [GS-407, 2-(2,6-dioxopiperidin-3-yl)-5-((3-(trans-3-(3-methyl-4-(7-((1R,4R)-5-methyl-2,5-diazabicyclo[2.2.1]heptan-2-yl)quinoxalin-2-yl)-1H-pyrazol-1-yl)cyclobutyl)propyl)amino)isoindoline-1,3-dione]	> 1	0.1 to 1	> 1	0.01 to 0.1	–	–
C[C@@H]1CN(c2ccc3ncc(-c4cnn([C@H]5C[C@H](CCCNc6ccc7c(c6)C(=O)N(C6CCC(=O)NC6=O)C7=O)C5)c4)nc3c2)C[C@H](C)N1C (stereo partly drawn) [GS-408, 2-(2,6-dioxopiperidin-3-yl)-5-((3-(trans-3-(4-(7-((3S,5R)-3,4,5-trimethylpiperazin-1-yl)quinoxalin-2-yl)-1H-pyrazol-1-yl)cyclobutyl)propyl)amino)isoindoline-1,3-dione]	0.1 to 1	0.01 to 0.1	0.1 to 1	0.01 to 0.1	–	–
CN1C2CCC1CN(c1ccc3ncc(-c4cnn([C@H]5C[C@H](CCCNc6ccc7c(c6)C(=O)N(C6CCC(=O)NC6=O)C7=O)C5)c4)nc3c1)C2 (stereo partly drawn) [GS-409, 2-(2,6-dioxopiperidin-3-yl)-5-((3-(trans-3-(4-(7-(8-methyl-3,8-diazabicyclo[3.2.1]octan-3-yl)quinoxalin-2-yl)-1H-pyrazol-1-yl)cyclobutyl)propyl)amino)isoindoline-1,3-dione]	0.01 to 0.1	0.01 to 0.1	0.01 to 0.1	< 0.01	–	–
O=C1CCC(N2C(=O)c3ccc(NCCC[C@H]4C[C@H](n5cc(-c6cnc7ccc(N8C[C@H]9C[C@@H]8CO9)cc7n6)cn5)C4)cc3C2=O)C(=O)N1 (stereo partly drawn) [GS-410, 5-((3-(trans-3-(4-(7-((1R,4R)-2-oxa-5-azabicyclo[2.2.1]heptan-5-yl)quinoxalin-2-yl)-1H-pyrazol-1-yl)cyclobutyl)propyl)amino)-2-(2,6-dioxopiperidin-3-yl)isoindoline-1,3-dione]	0.01 to 0.1	< 0.01	0.01 to 0.1	< 0.01	–	–
CN1C[C@H]2C[C@@H]1CN2c1ccc2ncc(-c3cnn([C@H]4C[C@H](CCCNc5ccc6c(c5)C(=O)N(C5CCC(=O)NC5=O)C6=O)C4)c3)nc2c1 (stereo partly drawn) [GS-411, 2-(2,6-dioxopiperidin-3-yl)-5-((3-(trans-3-(4-(7-((1R,4R)-5-methyl-2,5-diazabicyclo[2.2.1]heptan-2-yl)quinoxalin-2-yl)-1H-pyrazol-1-yl)cyclobutyl)propyl)amino)isoindoline-1,3-dione]	0.01 to 0.1	< 0.01	> 1	< 0.01	–	–
CN1CCN(c2ccc3nc(-c4cnn([C@H]5C[C@@H](CCCNc6ccc7c(c6)C(=O)N(C6CCC(=O)NC6=O)C7=O)C5)c4)cnc3c2)CC1 (stereo partly drawn) [GS-412, 2-(2,6-dioxopiperidin-3-yl)-5-((3-(cis-3-(4-(6-(4-methylpiperazin-1-yl)quinoxalin-2-yl)-1H-pyrazol-1-yl)cyclobutyl)propyl)amino)isoindoline-1,3-dione]	0.1 to 1	–	0.1 to 1	–	0.01 to 0.1	0.01 to 0.1
